Measured values as given in patent US20110033906A1 (priority 2009, published 2011).

Experiments:
[1] = tested on: cellulase surface-displaying yeast (arming yeast); conditions: 120 hours after the start of fermentation

With “1-ethyl-3-methylimidazolium diethylphosphate [[Emim][DEP]]” the “ethanol yield relative to theoretical yield” value [1] was “about 56%” and the ethanol obtained ([1]; crystalline cellulose (Avicel) pretreated with [Emim][DEP], arming yeast, ionic liquid present) was 1.43 g/L.
With CCn1cc[n+](C)c1 [[Emim][Cl], 1-ethyl-3-methylimidazolium chloride] the “yeast survivability (live cell counts)” value (yeast (MT 8-1)) was “not greatly affected”.
